Laboratory results from patent publication US20120165376A1, “STABILIZED MICROBICIDAL COMPOSITION” (priority 2010, published 2012).

Legend:
Assay type in all cases: physicochemical
[1] = Storage stability of formulations having 20% DBNPA, 6% BNPD and 1.25% CMI/MI (3:1): oven at 40° C., loss of biocides after 60 days; settings: 6% BNPD
Description: These formulations were prepared from salt-free CMI/MI biocide, except as otherwise indicated. They were placed in an oven at 40° C. and analyzed for loss of the biocides after 60 days.

[2] = Storage stability of formulations having 20% DBNPA and 6% BNPD: oven at 45° C., loss after 28 days
Description: These formulations were prepared and placed in an oven at 45° C. and analyzed for loss of the biocides after 28 days.

[3] = Storage stability of formulations having 10-20% DBNPA, without BNPD or CMI/MI: oven at 45° C., loss after 28 days
Description: These were prepared and placed in an oven at 45° C. and analyzed for loss of the biocides after 28 days. […]=diethylene glycol monomethyl ether.

[4] = Storage stability of formulations having 20% DBNPA and 0.25% CMI/MI (3:1): oven at 45° C., loss after 28 days
Description: These formulations were prepared, using salt-free CMI/MI and placed in an oven at 45° C. and analyzed for loss of the biocides after 28 days.

[5] = glycerin 0%, water 10%, TEG-mono-butyl ether 59.5%
[6] = glycerin 0%, water 20%, TEG 49.5%
[7] = glycerin 0%, water 20%, TEG-mono-butyl ether 49.5%
[8] = glycerin 0%, water 30%, TEG 39.5%
[9] = glycerin 0%, water 30%, TEG-mono-butyl ether 39.5%
[10] = glycerin 10%, water 10%, TEG 49.5%
[11] = glycerin 10%, water 20%, TEG-mono-butyl ether 39.5%
[12] = glycerin 10%, water 30%, TEG-mono-butyl ether 29.5%
[13] = glycerin 20%, water 10%, TEG 39.5%
[14] = glycerin 20%, water 20%, TEG 29.5%
[15] = glycerin 0%, water 20%, DPG 54, 20% DBNPA
[16] = glycerin 0%, water 20%, TetEG 54, 20% DBNPA
[17] = glycerin 10%, water 5%, DPG 60, 20% DBNPA
[18] = glycerin 10%, water 5%, TetEG 60, 20% DBNPA
[19] = glycerin 10%, water 10%, DPG 54, 20% DBNPA
[20] = glycerin 10%, water 10%, TetEG 54, 20% DBNPA
[21] = glycerin 20%, water 10%, DPG 44, 20% DBNPA
[22] = glycerin 20%, water 10%, TEG 44, 20% DBNPA
[23] = glycerin 20%, water 10%, TetEG 44, 20% DBNPA
[24] = glycerin 30%, water 5%, DPG 39, 20% DBNPA
[25] = glycerin 30%, water 5%, TetEG 39, 20% DBNPA
[26] = glycerin 30%, water 10%, DPG 34, 20% DBNPA
[27] = glycerin 30%, water 10%, TetEG 34, 20% DBNPA
[28] = glycerin 30%, water […]%, DPG 29, 20% DBNPA, result believed to be erroneous
[29] = glycerin 30%, water […]%, TetEG 29, 20% DBNPA

Structure (SMILES): O=[N+]([O-])C(Br)(CO)CO [BNPD, 2-bromo-2-nitro-1,3-propanediol]
- BNPD loss, % ([1]; glycerin 0%, water 10%, TEG 59.5%): 3%
- BNPD loss, % [1, 5]: 0%
- BNPD loss, % [1, 6]: 1%
- BNPD loss, % [1, 7]: 0%
- BNPD loss, % [1, 8]: 3%
- BNPD loss, % [1, 9]: 3%
- BNPD loss, % [1, 10]: 3%
- BNPD loss, % ([1]; glycerin 10%, water 10%, TEG-mono-butyl ether 49.5%): 3%
- BNPD loss, % ([1]; glycerin 10%, water 20%, TEG 39.5%): 3%
- BNPD loss, % [1, 11]: 3%
- BNPD loss, % [1, 12]: 4%
- BNPD loss, % [1, 13]: 3%
- BNPD loss, % ([1]; glycerin 20%, water 10%, TEG-mono-butyl ether 39.5%): 3%
- BNPD loss, % [1, 14]: 4%
- BNPD loss, % [2, 15]: 1.5%
- BNPD loss, % ([2]; glycerin 0%, water 20%, TEG 54, 20% DBNPA): 7%
- BNPD loss, % [2, 16]: 0%
- BNPD loss, % [2, 17]: 1%
- BNPD loss, % [2, 18]: 6%
- BNPD loss, % [2, 19]: 0.5%
- BNPD loss, % [2, 20]: 8.5%
- BNPD loss, % [2, 21]: 1.5%
- BNPD loss, % [2, 22]: 4%
- BNPD loss, % [2, 23]: 3%
- BNPD loss, % [2, 24]: 1.5%
- BNPD loss, % [2, 25]: 1.5%
- BNPD loss, % [2, 26]: 1%
- BNPD loss, % [2, 27]: 2%
- BNPD loss, % [2, 28]: 12.5^1%
- BNPD loss, % [2, 29]: 3.5%

Structure (SMILES): N#CC(Br)(Br)C(N)=O [DBNPA, 2,2-dibromo-3-nitrilopropionamide]
- DBNPA loss, % ([3]; glycerin 30%, water 5%, TEG 45, 20% DBNPA): 3^ %
- DBNPA loss, % ([3]; glycerin 45%, water 5%, TEG 30, 20% DBNPA): 3^ %
- DBNPA loss, % ([3]; glycerin 65%, water […]%, DEGMME 10, only 10% DBNPA): 95^1%
- DBNPA loss, % ([3]; glycerin 65%, water […]%, TEG 10, only 10% DBNPA): 3^1%
- DBNPA loss, % ([3]; glycerin 65%, water […]%, TetEG 10, only 10% DBNPA): 95^1%
- DBNPA loss, % [1, 5]: 40%
- DBNPA loss, % [1, 6]: 10%
- DBNPA loss, % [1, 7]: 18%
- DBNPA loss, % [1, 8]: 16%
- DBNPA loss, % [1, 9]: 18%
- DBNPA loss, % [1, 10]: 6%
- DBNPA loss, % [1, 11]: 14%
- DBNPA loss, % [1, 12]: 18%
- DBNPA loss, % [1, 13]: 5%
- DBNPA loss, % [1, 14]: 14%
- DBNPA loss, % [2, 15]: 3.5%
- DBNPA loss, % [2, 16]: 2%
- DBNPA loss, % [2, 17]: 7%
- DBNPA loss, % [2, 18]: 5%
- DBNPA loss, % [2, 19]: 6%
- DBNPA loss, % [2, 20]: 7%
- DBNPA loss, % [2, 21]: 3%
- DBNPA loss, % [2, 22]: 7%
- DBNPA loss, % [2, 23]: 7%
- DBNPA loss, % [2, 24]: 2%
- DBNPA loss, % [2, 25]: 2.5%
- DBNPA loss, % [2, 26]: 3%
- DBNPA loss, % [2, 27]: 3%
- DBNPA loss, % [2, 28]: 14^1%
- DBNPA loss, % [2, 29]: 4.5%
- DBNPA loss, % ([4]; glycerin 0%, water 20%, DPG 59, 20% DBNPA, 0.25% CMI/MI (3:1)): 10%
- DBNPA loss, % ([4]; glycerin 0%, water 20%, TetEG 59, 20% DBNPA, 0.25% CMI/MI (3:1)): 4%
- DBNPA loss, % ([4]; glycerin 10%, water 5%, DPG 64, 20% DBNPA, 0.25% CMI/MI (3:1), result believed to be erroneous): 27^1%
- DBNPA loss, % ([4]; glycerin 10%, water 5%, TetEG 64, 20% DBNPA, 0.25% CMI/MI (3:1)): 2.5%
- DBNPA loss, % ([4]; glycerin 10%, water 10%, DPG 59, 20% DBNPA, 0.25% CMI/MI (3:1)): 7%
- DBNPA loss, % ([4]; glycerin 10%, water 10%, TetEG 59, 20% DBNPA, 0.25% CMI/MI (3:1)): 3.5%
- DBNPA loss, % ([4]; glycerin 20%, water 10%, DPG 49, 20% DBNPA, 0.25% CMI/MI (3:1)): 3.5%
- DBNPA loss, % ([4]; glycerin 20%, water 10%, TEG 49, 20% DBNPA, sample had 1% CMI/MI): 6%
- DBNPA loss, % ([4]; glycerin 20%, water 10%, TetEG 49, 20% DBNPA, 0.25% CMI/MI (3:1)): 3.5%
- DBNPA loss, % ([4]; glycerin 30%, water 5%, DPG 44, 20% DBNPA, 0.25% CMI/MI (3:1)): 6%
- DBNPA loss, % ([4]; glycerin 30%, water 5%, TetEG 44, 20% DBNPA, 0.25% CMI/MI (3:1)): 6%
- DBNPA loss, % ([4]; glycerin 30%, water 10%, DPG 39, 20% DBNPA, 0.25% CMI/MI (3:1)): 4%
- DBNPA loss, % ([4]; glycerin 30%, water 10%, TetEG 39, 20% DBNPA, 0.25% CMI/MI (3:1)): 2.5%
- DBNPA loss, % ([4]; glycerin 30%, water 20%, DPG 29, 20% DBNPA, 0.25% CMI/MI (3:1)): 4%
- DBNPA loss, % ([4]; glycerin 30%, water 20%, TetEG 29, 20% DBNPA, 0.25% CMI/MI (3:1)): 3.5%
- DBNPA loss, % ([4]; glycerin 30%, water […]%, DPG 34, 20% DBNPA, 0.25% CMI/MI (3:1)): 3.5%
- DBNPA loss, % ([4]; glycerin 30%, water […]%, TetEG 34, 20% DBNPA, 0.25% CMI/MI (3:1)): 3%
